Data from ChEMBL document CHEMBL1201862, “PubChem BioAssay data set” (2004).
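Protocol summary: plate cells (96-well), add compound at 5 concentrations, incubate 48 h, interpolate endpoints linearly. The concentration for 50% growth inhibition is given as GI50.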 Activity calls are given as the source filed them. Rule as the data show it: active = GI50 up to about 1.1 µM and inactive = higher.

Legend:
Assay in all cases: NCI anticancer screen, dose series, 48 h
[1] = test system: Malme-3M
[2] = test system: ACHN
[3] = test system: NCI-H23
[4] = test system: OVCAR-4
[5] = test system: SNB-19
[6] = test system: SNB-75
[7] = test system: CCRF-CEM
[8] = test system: OVCAR-3
[9] = test system: M14
[10] = test system: CAKI-1
[11] = test system: HCT-116
[12] = test system: SF-539
[13] = test system: NCI-H522
[14] = test system: UACC-257
[15] = test system: HT-29
[16] = test system: IGROV-1
[17] = test system: EKVX
[18] = test system: 786-0
[19] = test system: NCI-H226

Measured: GI50

CCOc1ccc(/N=C\c2cc(OC)c(OC)c(OC)c2)cc1
inactive: [1] > 100 µM | [2] > 100 µM | [3] > 100 µM | [4] > 100 µM | [5] > 100 µM | [6] 32.4 µM | [7] > 100 µM | [8] > 100 µM | [9] > 100 µM | [10] > 100 µM | [11] > 100 µM | [12] > 100 µM | [13] > 100 µM | [14] > 100 µM | [15] > 100 µM | [16] > 100 µM | [17] > 100 µM | [18] > 100 µM

COC(=O)C1=C(C(=O)OC)C2C=CC1C1C(Cl)=C(Cl)C21 (stereo not given)
inactive: [1] > 100 µM | [2] > 100 µM | [3] > 100 µM | [4] > 100 µM | [6] > 100 µM | [7] > 100 µM | [8] > 100 µM | [9] > 100 µM | [10] > 100 µM | [12] > 100 µM | [13] > 100 µM | [14] > 100 µM | [15] > 100 µM | [16] > 100 µM | [17] > 100 µM | [18] > 100 µM

COC1(OC)N=C(N)C2(C#N)C(C)=C3NCN(C)N=C3C12C#N (stereo not given)
inactive: [1] > 100 µM | [2] > 100 µM | [3] > 100 µM | [5] > 100 µM | [6] > 100 µM | [7] > 10 µM | [19] > 100 µM | [8] > 100 µM | [9] > 100 µM | [10] > 100 µM | [11] > 100 µM | [12] > 100 µM | [13] > 100 µM | [14] > 100 µM | [15] > 100 µM | [16] > 100 µM | [17] > 100 µM | [18] > 100 µM

CC1=C(/C(C)=N/NC(=O)C(N)=O)Sc2ccccc2N1
inactive: [1] > 100 µM | [2] > 100 µM | [3] > 100 µM | [4] > 100 µM | [5] > 100 µM | [6] 65.8 µM | [7] > 100 µM | [8] > 100 µM | [9] > 100 µM | [10] > 100 µM | [11] 10 µM | [12] > 100 µM | [13] > 100 µM | [14] > 100 µM | [15] > 100 µM | [16] > 100 µM | [17] > 100 µM | [18] > 100 µM

COc1ccc(C2Cc3cc(OC)c(OC)c(OC)c3C2)cc1 (stereo not given)
inactive: [1] 22.8 µM | [2] 39.1 µM | [3] 9.59 µM | [4] 59.6 µM | [5] 55.6 µM | [6] 24.2 µM | [7] 32.6 µM | [19] 34.9 µM | [8] 38.8 µM | [9] 35.6 µM | [10] 36.9 µM | [11] 41 µM | [12] 64.7 µM | [14] 23.2 µM | [15] 28.1 µM | [16] > 100 µM | [17] 29 µM | [18] 61.4 µM

Clc1ccccc1C(c1ccccc1)(c1ccccc1)n1ccnc1 [CLOTRIMAZOLE]
inactive: [1] 4.8 µM | [2] 10 µM | [3] 13 µM | [4] 9.82 µM | [5] 14.4 µM | [6] 16.5 µM | [7] 5.93 µM | [8] 5.66 µM | [9] 13.5 µM | [10] 17.4 µM | [11] 7.82 µM | [13] 6.38 µM | [14] 10.8 µM | [15] 9.25 µM | [16] 7.57 µM | [17] 7.93 µM | [18] 14.9 µM

O=C(c1ccc(Cl)cc1)c1ccc(OCCCCCCCCCCOc2ccc(C(=O)c3ccc(Cl)cc3)cc2)cc1
inactive: [1] > 100 µM | [2] > 100 µM | [3] > 100 µM | [5] > 100 µM | [6] > 100 µM | [7] > 100 µM | [19] > 100 µM | [8] > 100 µM | [10] > 100 µM | [13] > 100 µM | [14] > 100 µM | [15] > 100 µM | [16] > 100 µM | [17] > 100 µM | [18] > 100 µM

Cc1ccc(C(=O)Nc2ccccc2)cc1/N=N/N(C)C
inactive: [2] > 100 µM | [3] > 100 µM | [4] > 100 µM | [5] > 100 µM | [8] > 100 µM | [9] > 100 µM | [10] > 100 µM | [11] > 100 µM | [12] > 100 µM | [13] 35.2 µM | [14] > 100 µM | [15] > 100 µM | [16] > 100 µM | [17] > 100 µM | [18] 21 µM

CC(Cl)CC(=O)OCC1CCCN2CCCCC12 (stereo not given)
inactive: [1] > 100 µM | [2] > 100 µM | [3] > 100 µM | [4] > 100 µM | [5] > 100 µM | [6] > 100 µM | [7] > 100 µM | [19] > 100 µM | [8] > 100 µM | [9] > 100 µM | [10] > 100 µM | [11] > 100 µM | [12] > 100 µM | [14] > 100 µM | [15] > 100 µM | [17] > 100 µM | [18] > 100 µM

OC(c1ccc(F)cc1)C(F)(F)c1nc(-c2ccccc2)no1 (stereo not given)
inactive: [1] 13.9 µM | [2] 27.2 µM | [3] 26.1 µM | [4] 20.7 µM | [5] 36.4 µM | [7] 14.3 µM | [8] 16.4 µM | [9] 17.9 µM | [10] 27 µM | [11] 19.1 µM | [13] 2.44 µM | [14] 19.6 µM | [15] 17.6 µM | [16] > 100 µM | [17] 22.9 µM | [18] 20.1 µM

COc1cc(/C=C/C(=O)c2sc(Nc3ccccc3)nc2C)ccc1O
inactive: [1] > 100 µM | [2] 50.5 µM | [3] > 100 µM | [5] > 100 µM | [6] 23.5 µM | [7] 88.5 µM | [8] 33.5 µM | [10] 42.9 µM | [12] > 100 µM | [13] 42.4 µM | [14] > 100 µM | [15] 97.9 µM | [16] > 100 µM | [17] 19.8 µM | [18] > 100 µM

COc1ccc(C(=O)C(C(=O)C(=O)Nc2nccs2)c2ccc(OC)cc2)cc1 (stereo not given)
inactive: [1] > 100 µM | [2] > 100 µM | [3] > 100 µM | [4] > 10 µM | [5] > 100 µM | [6] 73.6 µM | [7] > 100 µM | [8] > 100 µM | [9] > 100 µM | [10] > 100 µM | [11] > 100 µM | [12] > 100 µM | [13] 92 µM | [14] > 100 µM | [15] > 100 µM | [16] > 100 µM | [18] > 100 µM
